Results as given in patent US20230250066A1, “HERBICIDAL CINNOLINE DERIVATIVES” (SYNGENTA CROP PROTECTION AG, priority 2020, published 2023).

Assays:
Assay type in all cases: in vivo
[1] = tested on: Amaranthus retoflexus (AMARE); assay: Pre-emergence herbicidal test; details: 1000 g/ha, evaluated after 13 days
Solanum nigrum (SOLNI) [2] = assay: Pre-emergence herbicidal test; details: 1000 g/ha, evaluated after 13 days
Setaria faberi (SETFA) [3] = assay: Pre-emergence herbicidal test; details: 1000 g/ha, evaluated after 13 days
Lolium perenne (LOLPE) [4] = assay: Pre-emergence herbicidal test; details: 1000 g/ha, evaluated after 13 days
[5] = tested on: Echinochloa crus-galli (ECHCG); assay: Pre-emergence herbicidal test; details: 1000 g/ha, evaluated after 13 days
[6] = tested on: Ipomoea hederacea (IPOHE); assay: Pre-emergence herbicidal test; details: 1000 g/ha, evaluated after 13 days
[7] = tested on: Amaranthus retoflexus (AMARE); assay: Post-emergence herbicidal test; details: 1000 g/ha unless otherwise stated, evaluated after 13 days
How it was run: (§1)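 Pots sown in standard soil were kept in a glasshouse (24° C./16° C. day/night, 14 hours light, 65% humidity) and sprayed at 1000 g/ha unless otherwise stated in acetone/water (50:50) with 0.5% Tween 20. Percentage damage was scored after 13 days on a 0–5 scale.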

[8] = tested on: Echinochloa crus-galli (ECHCG); assay: Post-emergence herbicidal test; details: 1000 g/ha unless otherwise stated, evaluated after 13 days
How it was run: as §1

[9] = tested on: Ipomoea hederacea (IPOHE); assay: Post-emergence herbicidal test; details: 1000 g/ha unless otherwise stated, evaluated after 13 days
How it was run: as §1

Lolium perenne (LOLPE) [10] = assay: Post-emergence herbicidal test; details: 1000 g/ha unless otherwise stated, evaluated after 13 days
How it was run: as §1

Setaria faberi (SETFA) [11] = assay: Post-emergence herbicidal test; details: 1000 g/ha unless otherwise stated, evaluated after 13 days
How it was run: as §1

Solanum nigrum (SOLNI) [12] = assay: Post-emergence herbicidal test; details: 1000 g/ha unless otherwise stated, evaluated after 13 days
How it was run: as §1

[13] = tested on: Abutilon theophrasti (ABUTH); assay: Pre-emergence herbicidal test; details: 1000 g/ha, evaluated after 13 days
Zea mays (ZEAMX) [14] = assay: Pre-emergence herbicidal test; details: 1000 g/ha, evaluated after 13 days
[15] = tested on: Abutilon theophrasti (ABUTH); assay: Post-emergence herbicidal test; details: 1000 g/ha unless otherwise stated, evaluated after 13 days
How it was run: as §1

Zea mays (ZEAMX) [16] = assay: Post-emergence herbicidal test; details: 1000 g/ha unless otherwise stated, evaluated after 13 days
How it was run: as §1

| Structure (SMILES) | percentage damage caused to the plant, five-point scale, AMARE [1] | percentage damage caused to the plant, five-point scale, SOLNI (Solanum nigrum (SOLNI) [2]) | percentage damage caused to the plant, five-point scale, SETFA (Setaria faberi (SETFA) [3]) | percentage damage caused to the plant, five-point scale, LOLPE (Lolium perenne (LOLPE) [4]) | percentage damage caused to the plant, five-point scale, ECHCG [5] | percentage damage caused to the plant, five-point scale, IPOHE [6] | percentage damage caused to the plant, AMARE (five-point scale) [7] | percentage damage caused to the plant, ECHCG (five-point scale) [8] | percentage damage caused to the plant, IPOHE (five-point scale) [9] | percentage damage caused to the plant, LOLPE (five-point scale) (Lolium perenne (LOLPE) [10]) | percentage damage caused to the plant, SETFA (five-point scale) (Setaria faberi (SETFA) [11]) | percentage damage caused to the plant, SOLNI (five-point scale) (Solanum nigrum (SOLNI) [12]) | percentage damage caused to the plant, five-point scale, ABUTH [13] | percentage damage caused to the plant, five-point scale, ZEAMX (Zea mays (ZEAMX) [14]) | percentage damage caused to the plant, ABUTH (five-point scale) [15] | percentage damage caused to the plant, ZEAMX (five-point scale) (Zea mays (ZEAMX) [16]) |
| --- | --- | --- | --- | --- | --- | --- | --- | --- | --- | --- | --- | --- | --- | --- | --- | --- |
| CSc1cccc2c1c(=O)c(C(=O)O)nn2-c1ccc(OC(F)(F)F)cc1 [Compound P1, 5-methylsulfanyl-4-oxo-1-[4-(trifluoromethoxy)phenyl]cinnoline-3-carboxylic acid] | 0 (0=0%) | 0 (0=0%) | 0 (0=0%) | 0 (0=0%) | 0 (0=0%) | 0 (0=0%) | 0 (0=0%) | 0 (0=0%) | 0 (0=0%) | 0 (0=0%) | 0 (0=0%) | 0 (0=0%) | – | – | – | – |
| CS(=O)(=O)c1cccc2c1c(=O)c(C(=O)O)nn2-c1ccc(OC(F)(F)F)cc1 [Compound P2, 5-methylsulfonyl-4-oxo-1-[4-(trifluoromethoxy)phenyl]cinnoline-3-carboxylic acid] | 1 (1=10-20%) | 4 (4=61-80%) | 5 (5=81-100%) | 5 (5=81-100%) | 5 (5=81-100%) | 1 (1=10-20%) | 1 (1=10-20%) | 4 (4=61-80%) | 2 (2=21-40%) | 4 (4=61-80%) | 4 (4=61-80%) | 4 (4=61-80%) | – | – | – | – |
| COC(=O)c1nn(-c2ccc(OC(F)(F)F)cc2)c2cccc(S(C)(=O)=O)c2c1=O [Compound P3, methyl 5-methylsulfonyl-4-oxo-1-[4-(trifluoromethoxy)phenyl]cinnoline-3-carboxylate] | 1 (1=10-20%) | 1 (1=10-20%) | 4 (4=61-80%) | 4 (4=61-80%) | 4 (4=61-80%) | 1 (1=10-20%) | 1 (1=10-20%) | 4 (4=61-80%) | 1 (1=10-20%) | 4 (4=61-80%) | 4 (4=61-80%) | 1 (1=10-20%) | – | – | – | – |
| CSc1cccc2c1c(=O)c(C(=O)O)nn2-c1ccc(Cl)cc1 [Compound P4, 1-(4-chlorophenyl)-5-methylsulfanyl-4-oxo-cinnoline-3-carboxylic acid] | 0 (0=0%) | 0 (0=0%) | 0 (0=0%) | 0 (0=0%) | 0 (0=0%) | 0 (0=0%) | 0 (0=0%) | 0 (0=0%) | 0 (0=0%) | 0 (0=0%) | 0 (0=0%) | 0 (0=0%) | – | – | – | – |
| CS(=O)(=O)c1cccc2c1c(=O)c(C(=O)O)nn2-c1ccc(Cl)cc1 [Compound P5, 1-(4-chlorophenyl)-5-methylsulfonyl-4-oxo-cinnoline-3-carboxylic acid] | 1 (1=10-20%) | 1 (1=10-20%) | 4 (4=61-80%) | 4 (4=61-80%) | 4 (4=61-80%) | 1 (1=10-20%) | 1 (1=10-20%) | 4 (4=61-80%) | 1 (1=10-20%) | 4 (4=61-80%) | 4 (4=61-80%) | 4 (4=61-80%) | – | – | – | – |
| CC(C)CCSC(=O)c1nn(-c2ccc(OC(F)(F)F)cc2)c2cccc(S(C)(=O)=O)c2c1=O [Compound P91, S-isopentyl 5-methylsulfonyl-4-oxo-1-[4-(trifluoromethoxy)phenyl]cinnoline-3-carbothioate] | 0 (0=0%) | – | 4 (4=61-80%) | – | 3 (3=41-60%) | 0 (0=0%) | 0 (0=0%) | 3 (3=41-60%) | 1 (1=10-20%) | – | 4 (4=61-80%) | – | 0 (0=0%) | 0 (0=0%) | 1 (1=10-20%) | 1 (1=10-20%) |
| CS(=O)(=O)c1cccc2c1c(=O)c(C(=O)SCCCc1ccccc1)nn2-c1ccc(OC(F)(F)F)cc1 [Compound P92, S-(3-phenylpropyl) 5-methyslulfonyl-4-oxo-1-[4-(trifluoromethoxy)phenyl]cinnoline-3-carbothioate] | 1 (1=10-20%) | – | 3 (3=41-60%) | – | 1 (1=10-20%) | 0 (0=0%) | 1 (1=10-20%) | 3 (3=41-60%) | 2 (2=21-40%) | – | 3 (3=41-60%) | – | 1 (1=10-20%) | 0 (0=0%) | 2 (2=21-40%) | 1 (1=10-20%) |
